Experimental data as given in patent US20040175448A1, “Pharmaceutical compositions” (Mars, Incorporated, priority 1994, published 2004).

Assay: Rancimat oxidative stability test of peanut oil
Details: Rancimat 100° C., 20 cc/min air, average of duplicate
From the text: The procedures described in Examples 1, 2 and 3 were used to prepare cocoa extracts which were manipulated further to produce two fractions from gel permeation chromatography. These two fractions are actually combined fractions A through C, and D and E (See FIG. 1) whose antioxidant properties were compared against the synthetic antioxidants BHA and BHT.
Peanut Oil was pressed from unroasted peanuts after the skins were removed. Each test compound was spiked into the oil at two levels about 100 ppm and about 20 ppm, with the actual levels given in Table 7.50 μL of methanol solubilized antioxidant was added to each sample to aid in dispersion of the antioxidant. A control sample was prepared with 50 μL of methanol containing no antioxidant.
The samples were evaluated in duplicate, for oxidative stability using the Rancimat stability test at 100° C. and 20 cc/min of air. Experimental parameters were chosen to match those used with the Active Oxygen Method (AOM) or Swift Stability Test (Van Oosten et al., 1981). Results are reported in Table 8 as hours required to reach a peroxide level of 100 meq.

[1] = 20 ppm (actual 20-24 ppm, Table 7)
[2] = 100 ppm (actual 100-120 ppm, Table 7)

SMILES	Oxidative stability of peanut oil: hours required to reach a peroxide level of 100 meq [1] [h]	Oxidative stability of peanut oil: hours required to reach a peroxide level of 100 meq [2] [h]
COc1ccc(O)c(C(C)(C)C)c1 [BHA, Butylated Hydroxyanisole]	13.5 ± 2.1	14.0 ± 1.4
Cc1cc(C(C)(C)C)c(O)c(C(C)(C)C)c1 [BHT, Butylated Hydroxytoluene]	16.5 ± 2.1	12.5 ± 2.1
